Patent US20130261137A1, “Methods, Compounds and Compositions Relating to Activating a Latent Virus” (ULC BUSINESS PLC, priority 2010, published 2013)

Experiments:
KSHV RTA in JSC-1 cells = assay type: cell-based
[1] = tested on: HIV-1 LTR in J-Lat A72 cells; test: HIV-1 LTR assay, GFP expression in J-LAT A72 cells; conditions: for HIV-1 LTR induction by other antimicrotubule agents: taxol 0.8 μM, vinblastine 0.8 μM, ERK dependent (U0126); for reduction of HIV LTR induction by 15026 compared to DMSO control: 15026 0.8 μM
HIV-1 LTR in U1 cells = test: HIV-1 LTR induction assay, TAR RNA qPCR in U1 cells; conditions: 15026 4 μM
HIV-1 LTR in ACH2 cells = test: HIV-1 LTR induction assay, TAR RNA qPCR in ACH2 cells; conditions: 15026 4 μM
JSC-1 PYFP cells = conditions: U0126 10 μM, 40 h
[2] = tested on: KSHV RTA in JSC-1 PYFP cells
[3] = tested on: KSHV RTA in BCBL-1 PLuc cells; assay type: cell-based
[4] = tested on: KSHV ORF 29 in JSC-1 cells; test: Semi-quantitative RT-PCR of KSHV late gene ORF 29 in JSC-1; assay type: cell-based; conditions: different concentrations
Description: Briefly, RNA was extracted from 2×10^6 cells with TRIzol (Invitrogen) and treated with DNase (Ambion), followed by phenol extraction and ethanol precipitation. Serial dilution (3×10-fold) of oligonucleotide dT (Qiagen)-primed cDNA was used for PCR amplification (Promega) of KSHV ORF 29 using forward ([…]; SEQ ID NO. 1) and reverse ([…]; SEQ ID NO. 2) primers. All samples were normalized by PCR amplification of beta-2 microglobulin (β2M) using serially diluted cDNA with forward ([…]; SEQ ID NO. 3) and reverse ([…]; SEQ ID NO. 4) primers. The PCR cycle consisting of 95° C. for 30 seconds, 50° C. for 30 seconds, and 72° C. for 30 seconds was repeated 36 times for ORF 29, and 28 times for β2M. Both set of primers amplify across splice junction and the sizes (in bp) of the expected products are: ORF 29 (cDNA—399, DNA—3650) and β2M (cDNA—301, DNA—2178).

JSC-1 cells = test: Cell viability assay (CellTiter-Glo); conditions: for GCV cytotoxicity after pre-treatment with compound: pre-treatment 24 h (UCLB-15026 800 nM, taxol 80 nM), then GCV 20 or 100 μM, 48 and 72 h
[5] = tested on: KSHV RTA in JSC-1 PLuc cells; assay type: cell-based
[6] = tested on: KSHV (rKSHV.219) in JSC-1 cells; assay type: cell-based
tubulin = conditions: reported, reference 21; read-out: IC50 inhibiting tubulin polymerization; cited from earlier work
[7] = tested on: microtubule network in JSC-1 cells; test: Confocal immunofluorescence microscopy of microtubule network; assay type: cell-based; conditions: 100 μM, 16 h
Description: JSC-1 cells were grown on coverslips coated with […] (Sigma) with DMSO or UCLB-15026 (100 μM) for 16 h. JSC-1 cells were then fixed in 3% paraformaldehyde, rinsed and permeabilized in 0.02% Triton-PBS. This was followed by blocking in 2% FCS-PBS, staining with anti-tubulin antibody (Sigma), washed, and then incubated with Alexa-488 conjugated goat anti-mouse secondary antibody (Molecular Probes) before being mounted onto slides using VectaShield mounting medium containing DAPI. Images were taken using confocal microscope (Leica).

cells (cell cycle) = conditions: reported for the compound; cited from earlier work
[8] = tested on: HIV-1 LTR of subtype C in LGIT cells; test: HIV-1 LTR induction, GFP in LGIT cells, LTR subtype C; conditions: 24 hours; ERK-dependent (with or without U0126 10 μM)
[9] = tested on: HIV-1 LTR of subtype A in LGIT cells; test: HIV-1 LTR induction, GFP in LGIT cells, LTR subtype A; conditions: 24 hours; ERK-dependent (with or without U0126 10 μM)
[10] = tested on: HIV-1 LTR in PBMCs from HIV-1 positive individuals; test: Ex vivo HIV-1 LTR induction assay, TAR RNA qPCR in PBMCs from HIV-1 positive individuals; assay type: cell-based; conditions: 100 μM, 24 h
[11] = tested on: HIV-1 LTR of subtype A/G in LGIT cells; test: HIV-1 LTR induction, GFP in LGIT cells, LTR subtype A/G; conditions: 24 hours; ERK-dependent (with or without U0126 10 μM)

CCCC(=O)[O-].[Na+] [SB, sodium butyrate]
KSHV RTA induction and induction kinetics (western blot) (KSHV RTA in JSC-1 cells): delayed-kinetics

N#CC(=C(/N)Sc1ccccc1N)/C(C#N)=C(\N)Sc1ccccc1N [U0126]
effect of ERK inhibitor on LTR induction by 15026 (GFP) ([1]; U0126 10 μM, 15026 4 μM): inhibited 15026 activity
effect of ERK inhibitor on LTR induction by 15026 (TAR RNA) (HIV-1 LTR in U1 cells; U0126 10 μM): inhibited 15026 activity
effect of ERK inhibitor on LTR induction by 15026 (TAR RNA) (HIV-1 LTR in ACH2 cells; U0126 10 μM): inhibited 15026 activity
cell viability (trypan blue exclusion) (JSC-1 PYFP cells): no significant effect on cell viability

CC(=O)O[C@H]1C(=O)[C@@]2(C)[C@H]([C@H](OC(=O)c3ccccc3)[C@]3(O)C[C@H](OC(=O)[C@H](O)[C@@H](NC(=O)c4ccccc4)c4ccccc4)C(C)=C1C3(C)C)[C@]1(OC(C)=O)CO[C@@H]1C[C@@H]2O [taxol, paclitaxel]
HIV-1 LTR induction by other antimicrotubule agents ([1]; genistein 100 μM): induce transcriptional activities
KSHV reactivation (% YFP-positive cells normalized to TPA control) [2]: reactivated KSHV to similar levels
concentration range of half their maximal activities (KSHV reactivation) [2]: nanomolar range
RTA induction (% RLU normalized to TPA control/10^5 cells) [3]: induced RTA
expression of KSHV late gene ORF 29 [4]: dose-dependent expression
GCV cytotoxicity after pre-treatment with compound (JSC-1 cells): small but statistically significant increase in cell cytotoxicity
RTA expression (% RLU normalized to TPA control/10^5 cells) [5]: activate RTA expression

Nc1ncnc2c1ncn2[C@@H]1O[C@@H]2COP(O)(=S)O[C@H]2[C@H]1O (some centres unmarked) [Rp-cAMP]
reduction of HIV LTR induction by 15026 compared to DMSO control [1]: about 40%

O=S(=O)(NCCNC/C=C/c1ccc(Br)cc1)c1cccc2cnccc12 [H89]
reduction of HIV LTR induction by 15026 compared to DMSO control [1]: 80%
reduction of KSHV RTA induction by 15026 compared to DMSO control ([2]; 15026 0.8 μM): 35%

O=c1c(-c2ccc(O)cc2)coc2cc(O)cc(O)c12 [genistein]
HIV-1 LTR activity (% GFP-positive cells normalized to TPA) ([1]; genistein 100 μM, 24 h post-treatment): induction of HIV-1 LTR activity
HIV-1 LTR induction by other antimicrotubule agents ([1]; genistein 100 μM): can induce
KSHV RTA induction by other antimicrotubule agents [2]: can induce
KSHV lytic cycle induction (% YFP-positive cells normalized to TPA) [2]: can reactivate KSHV

CC[C@]1(O)C[C@@H]2CN(CCc3c([nH]c4ccccc34)[C@@](C(=O)OC)(c3cc4c(cc3OC)N(C)[C@H]3[C@@](O)(C(=O)OC)[C@H](OC(C)=O)[C@]5(CC)C=CCN6CC[C@]43[C@@H]65)C2)C1 [vinblastine]
HIV-1 LTR induction by other antimicrotubule agents ([1]; genistein 100 μM): can induce
KSHV RTA induction by other antimicrotubule agents [2]: can induce

CCCCCCCCCCCCCC(=O)O[C@@H]1[C@@H](C)[C@@]2(O)[C@@H](C=C(CO)C[C@]3(O)C(=O)C(C)=C[C@@H]23)[C@@H]2C(C)(C)[C@]12OC(C)=O [TPA, 12-O-tetradecanoyl-phorbol-13-acetate]
% RFP-positive cells [6]: −1.8%
KSHV RTA induction and induction kinetics (western blot) (KSHV RTA in JSC-1 cells): immediate-kinetics
exposure required for KSHV induction (KSHV RTA in JSC-1 cells): < 1 h

COc1ccc(-c2csc3c2-n2cccc2C3=O)cc1 [UCLB-15026]
IC50 (tubulin): 2.9 µM
effect on microtubule network (anti-tubulin immunofluorescence) [7]: disrupts microtubule network
cell cycle effect (cells (cell cycle)): accumulated in the G2/M phases of cell cycle
GFP expression driven by LTR of subtype C [8]: induced GFP expression
GFP expression driven by LTR of subtype A [9]: induced GFP expression
HIV-1 LTR activity (GFP expression) ([1]; 15026 4 μM, 24 hours): induced LTR activity
LTR-mediated GFP expression ([1]; UCLB-15026 at different concentrations, 24 or 40 h): substantially induced
KSHV reactivation (% YFP-positive cells normalized to TPA control) [2]: reactivated KSHV to similar levels
concentration range of half their maximal activities (KSHV reactivation) [2]: nanomolar range
HIV-1 LTR activity (TAR RNA expression) (HIV-1 LTR in U1 cells): induced LTR activity
RTA induction (% RLU normalized to TPA control/10^5 cells) [3]: induced RTA
expression of KSHV late gene ORF 29 [4]: dose-dependent expression
GCV cytotoxicity after pre-treatment with compound (JSC-1 cells): enhanced GCV cytotoxicity
HIV-1 LTR activity (TAR RNA expression) (HIV-1 LTR in ACH2 cells): induced LTR activity
RTA expression (% RLU normalized to TPA control/10^5 cells) [5]: activate RTA expression
TAR RNA copies compared with DMSO, three PBMC cultures [10]: higher TAR RNA copies in two out of three PBMC cultures
TAR RNA copies compared with DMSO, volunteer 1 ([10]; PBMC culture): about 5 fold
TAR RNA copies compared with DMSO, volunteer 2 ([10]; PBMC culture): about 200 fold
GFP expression driven by LTR of subtype A/G [11]: induced GFP expression

Nc1nc(O)c2ncn(COC(CO)CO)c2n1 [GCV, ganciclovir]
effect of GCV alone on JSC-1 proliferation (JSC-1 cells; DMSO 24 h, then GCV 20 μM or 100 μM, 24, 48, 72 h): no detrimental effect
